# Laboratory results as given in patent US20040067932A1 (priority 2002, published 2004).
# Structures can show the parent of a compound that is named as a salt. Where two headings read alike, the source gives them in different places.
# Columns and labels:
# A375 melanoma cells = assay: Colony formation assay of A375 cells; format: cell-based, human; settings: 7 days
# Description: FIG. 2 illustrates colony formation assay of A375 cells. Cells were treated with different drugs and colonies were counted after 7 days. The values represent the mean ±SEM of four independent experiments. D=DMSO (control); T=paclitaxel, 0.75 ng/ml; M=MRE 3008F20, 10 μM; C=CI-IB-MECA, 10 μM; TM=paclitaxel plus MRE 3008F20; TC=paclitaxel plus CI-IB-MECA treated cells. *P<0.01 TM versus T. Analysis was by ANOVA followed by Dunnett's test.;
# Control plates received the same volume of DMSO alone. After 7 days of growth at 37° C. in humidified atmosphere containing 5% CO2, the cells were fixed with absolute methanol for 5′ and stained with 1/10 Giemsa/phosphate-buffered saline (PBS) staining solution for 10 minutes. Staining solution was removed and colonies of greater than 30 cells were scored as survivors. For each treatment, six individual wells were scored.
# Colony formation assay experiments were performed on A375 melanoma cells treated with increasing concentration of paclitaxel (0.25-75 ng/ml). A3 stimulation is achieved with the selective agonist CI-IB-MECA while A3 blockade is obtained with the selective antagonist MRE 3008F20. […] (FIG. 2)
# [1] = biological target: T1, P-gp drug efflux activity in HeL023 cells (Homo sapiens, UniProt P08183); assay: Rhodamine 123 efflux assay, HeL023 cells; format: cell-based; settings: for inhibition of P-gp activity (in words): Rh123 efflux, concentrations of Table 11 (MRE3008F20 10 μM); for % of Rh123 negative cells: cells expressing P-gp activity
# T1 construct: nearly all (100±1%) the cells expressing high level of functional P-gp; endogenous in cells; host or cells: HeL023 human erythroleukemia cells
# T1 sequence (P08183 whole entry): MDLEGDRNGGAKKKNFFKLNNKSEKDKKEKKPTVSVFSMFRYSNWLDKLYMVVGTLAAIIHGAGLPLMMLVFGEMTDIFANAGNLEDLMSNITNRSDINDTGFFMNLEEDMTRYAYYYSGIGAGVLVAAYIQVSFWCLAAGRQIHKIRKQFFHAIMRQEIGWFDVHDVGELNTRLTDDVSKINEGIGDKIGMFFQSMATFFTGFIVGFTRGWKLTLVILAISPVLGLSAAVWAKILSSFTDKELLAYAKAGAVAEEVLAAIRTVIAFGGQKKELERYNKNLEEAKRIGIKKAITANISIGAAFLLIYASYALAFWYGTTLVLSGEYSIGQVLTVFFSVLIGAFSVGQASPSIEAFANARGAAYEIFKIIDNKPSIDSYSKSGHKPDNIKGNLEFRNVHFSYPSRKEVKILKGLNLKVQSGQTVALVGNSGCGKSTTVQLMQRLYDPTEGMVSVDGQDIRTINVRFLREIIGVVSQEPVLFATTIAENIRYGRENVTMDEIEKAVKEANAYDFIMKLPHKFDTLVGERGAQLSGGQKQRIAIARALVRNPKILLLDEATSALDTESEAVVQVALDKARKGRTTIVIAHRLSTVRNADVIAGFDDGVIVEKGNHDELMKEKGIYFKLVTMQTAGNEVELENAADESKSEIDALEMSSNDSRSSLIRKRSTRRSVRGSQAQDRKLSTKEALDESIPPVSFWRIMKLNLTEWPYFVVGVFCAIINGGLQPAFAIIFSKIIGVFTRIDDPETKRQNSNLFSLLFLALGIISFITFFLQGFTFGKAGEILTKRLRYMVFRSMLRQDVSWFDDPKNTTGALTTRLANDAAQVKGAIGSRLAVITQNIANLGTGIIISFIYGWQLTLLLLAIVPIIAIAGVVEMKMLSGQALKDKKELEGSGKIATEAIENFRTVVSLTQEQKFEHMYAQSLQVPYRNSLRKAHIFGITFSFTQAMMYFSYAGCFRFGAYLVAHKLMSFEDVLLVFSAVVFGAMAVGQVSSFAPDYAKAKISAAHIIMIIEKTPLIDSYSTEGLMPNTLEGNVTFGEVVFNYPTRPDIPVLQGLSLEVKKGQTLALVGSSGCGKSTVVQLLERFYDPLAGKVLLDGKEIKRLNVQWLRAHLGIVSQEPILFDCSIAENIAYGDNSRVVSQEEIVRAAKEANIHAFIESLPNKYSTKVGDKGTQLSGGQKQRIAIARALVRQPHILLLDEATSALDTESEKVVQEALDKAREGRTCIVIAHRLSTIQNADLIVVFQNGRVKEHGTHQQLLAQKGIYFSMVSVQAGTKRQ
# Description: 5×10^5 cells from each subline were loaded with 50 ng/ml of rhodamine 123 for 30 minutes at 37° C. in medium. The cells were washed and resuspended in dye-staining agent free medium for 3 hours at 37° C. to allow rhodamine 123 efflux. The cells were then washed twice and the fluorescence of intracellular rhodamine 123 were analysed with Flow cytometer (residual fluorescence FRES). The fluorescence was compared with loaded cells maintained at 4° C. to prevent drug export (maximal fluorescence FMAX). […] Cells from each subline that were not being exposed to rhodamine 123 were used as negative controls.
# Rhodamine 123 (Rh123) retention, a P-gp functional assay, was studied in all cell lines. This assay was performed by incubating cells with Rh123 and determining Rh123 accumulation by measuring its fluorescence. The maximum load of Rh123 (FMAX) was quantified at the end of treatment harvesting the cells and storing them at 4° C. to prevent any active Rh123 efflux . The P-gp drug efflux was allowed incubating Rh123-loaded cells in fresh new medium Rh123-free for 3 hours at 37° C. After this incubation, residual fluorescence (FRES) was measured and compared to FMAX.
# A375 cells = assay: Flow cytometry (PI) G2/M accumulation and sub-G1 apoptosis, A375; format: cell-based, human; settings: Homo sapiens, A-375, read-out: SEC50 (dose inducing 50% of the enhancing activity to vindesine)
# Description: A375 and NCTC2544 adherent cells were trypsinized, mixed with floating cells, washed with PBS and permeabilised in 70% (vol/vol) ethanol/PBS solution at 4° C. for at least 24 hours. Jurkat, HeL023 and PBMC cells were centrifuged for 10 minutes at 1000×g. The cell pellet was then resuspended and permeabilised in 70% (vol/vol) ethanol/PBS solution at 4° C. for at least 24 hours. The cells were washed with PBS and the DNA was stained with a PBS solution, containing 20 μg/ml of propidium iodide and 100 μg/ml of RNAse, at room temperature for 30 minutes. Cells were analysed by FACScan (Becton-Dickinson) and the content of DNA was evaluated by the Cell-LISYS program (Becton-Dickinson). Cell distribution among cell cycle phases and apoptotic cells was evaluated as previously described (Secchiero et al., 2001). Briefly, the cell cycle distribution is shown as the percentage of cells containing 2n (G1 phase), 4n (G2 and M phases), 4n>x>2n. DNA amount (S phase) judged by propidium iodide staining. The apoptotic population is the percentage of cells with DNA content lower than 2n.
# Cell proliferation and apoptosis are quantified by flow cytometer analysis after propidium-iodide (PI) DNA staining.
# [2] = biological target: T2, human A3 adenosine receptor (Homo sapiens, UniProt P0DMS8); assay: biochemical
# T2 sequence (P0DMS8 1-318): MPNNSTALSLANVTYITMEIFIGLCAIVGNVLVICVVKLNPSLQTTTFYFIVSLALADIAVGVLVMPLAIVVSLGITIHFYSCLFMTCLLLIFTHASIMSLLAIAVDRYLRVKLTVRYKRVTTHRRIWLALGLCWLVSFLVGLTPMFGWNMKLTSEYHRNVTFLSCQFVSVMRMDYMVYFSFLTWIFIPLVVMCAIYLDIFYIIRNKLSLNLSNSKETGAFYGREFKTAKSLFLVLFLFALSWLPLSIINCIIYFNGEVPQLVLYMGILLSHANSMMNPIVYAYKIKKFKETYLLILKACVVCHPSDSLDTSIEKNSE
# [3] = system: human melanoma A375 cell line; assay: MTT growth inhibitory assay, A375; format: cell-based
# [4] = system: human lung carcinoma SKMES; assay: MTT growth inhibitory assay, SKMES; format: cell-based
# [5] = system: human pancreatic cancer Panc-1; assay: MTT growth inhibitory assay, Panc-1; format: cell-based; settings: for IC50: Human Pancreatic Cancer Panc-1, read-out: IC50 growth inhibition, agent used separately
# [6] = system: human colon carcinoma HT29 cell line; assay: MTT growth inhibitory assay, HT29; format: cell-based; settings: for IC50: HT-29; for fold HT29 more refractory than A375: ratio of IC50 HT29 vs A375
# [7] = Homo sapiens, A-375, Human Melanoma A375, read-out: IC50 growth inhibition, agent used separately
# [8] = Human Lung Carcinoma SKMES, read-out: IC50 growth inhibition, agent used separately
# [9] = Human Colon Carcinoma HT29, read-out: IC50 growth inhibition, agent used separately
# [10] = Homo sapiens, A-375, A375 cell line, read-out: IC50 value
# [11] = Homo sapiens, HT29 cell line, read-out: IC50 value
compound,measurement,setting,value
CNC(=O)[C@H]1O[C@@H](n2cnc3c(NCc4cccc(I)c4)nc(Cl)nc32)[C@H](O)[C@@H]1O [CI-IB-MECA],"colony formation, % of DMSO control",A375 melanoma cells; 10 μM alone,130%
same,"colony formation, % of control, combined with paclitaxel",A375 melanoma cells; 10 μM plus paclitaxel 0.75 ng/ml,85%
"Nc1nc2ccc(Cl)cc2c2nc(-c3ccco3)nn12 [CGS 15943, 5-amino-9-chloro-2-(furyl) 1,2,4-triazolo[1,5-c]quinazoline, reference compound]",inhibition of P-gp activity (in words),[1],much lower effect on P-gp activity
same,EC50,A375 cells,12600 ± 1410 nM
same,Ki,[2],118 ± 12 nM
"Nc1nc(NCCc2ccc(O)cc2)nc2nc(-c3ccco3)nn12 [ZM 241385, 4-(2-[7-amino-2-(2-furyl)-[1,2,4]triazolo[2,3-a][1,3,5]triazin-5-ylamino]ethyl)phenol, reference compound]",inhibition of P-gp activity (in words),[1],much lower effect on P-gp activity
same,EC50,A375 cells,25000 ± 2230 nM
"Nc1nc2ccc(Cl)cc2c2nc(-c3ccco3)nn12 [drawing 12, reference compound]",% of Rh123 negative cells,[1]; 70 μM,87.1 ± 1.0%
"Cc1ccc(NC(=O)Nc2nc3nn(C)cc3c3nc(-c4ccco4)nn23)cc1 [MRE 3046F20, 5-N-(4-methylphenyl-carbamoyl)amino-8-methyl-2 (2-furyl)-pyrazolo-[4,3e]-1,2,4-triazolo[1,5-c]pyrimidine]",inhibition of P-gp activity (in words),[1],strong inhibitors of P-gp activity
same,EC50,A375 cells,570 ± 60 nM
same,Ki,[2],3 ± 0.3 nM
"CC[C@]1(O)C[C@@H]2CN(CCc3c([nH]c4ccccc34)[C@@](C(=O)OC)(c3cc4c(cc3OC)N(C)[C@H]3[C@@](O)(C(=O)OC)[C@H](OC(C)=O)[C@]5(CC)C=CCN6CC[C@]43[C@@H]65)C2)C1 [vinblastine, reference compound]",IC50,[3]; [7],0.0016 µg/mL
same,IC50,"[4]; Homo sapiens, SKMES, vinblastine 0.00001-0.005 μg/ml, alone, read-out: IC50 of vinblastine, A3 antagonist none",0.0015 µg/mL
same,IC50,[4]; [8],0.0019 ± 0.0009 µg/mL
same,IC50,[5],0.0018 ± 0.0008 µg/mL
same,IC50,[6]; [9],0.0019 ± 0.0004 µg/mL
"Nc1nc(NCCc2ccc(O)cc2)nc2nc(-c3ccco3)nn12 [drawing 13, reference compound]",% of Rh123 negative cells,[1]; 70 μM,93.0 ± 1.1%
"CCCn1cc2c(nc(NC(=O)Nc3ccccc3)n3nc(-c4ccco4)nc23)n1 [MRE 3055F20, 5-N-(4-phenylcarbamoyl)amino-8-propyl-2 (2furyl)-pyrazolo[4,3e]-1,2,4triazolo-[1,5c]pyrimidine]",inhibition of P-gp activity (in words),[1],strong inhibitors of P-gp activity
same,EC50,A375 cells,310 ± 30 nM
same,Ki,[2],1.4 ± 0.2 nM
"CCc1c2c(nc3ccc(OC(=O)N4CCC(N5CCCCC5)CC4)cc13)-c1cc3c(c(=O)n1C2)COC(=O)[C@]3(O)CC [irinotecan HCL, reference compound]",IC50,[3]; [7],0.88 ± 0.19 µg/mL
same,IC50,"[4]; Homo sapiens, SKMES, irinotecan HCL 0.04-20 μg/ml, alone, read-out: IC50 of irinotecan HCL, A3 antagonist none",1.17 µg/mL
same,IC50,[4]; [8],1.23 ± 0.36 µg/mL
same,IC50,[5],1.12 ± 0.29 µg/mL
same,IC50,[6]; [9],1.05 ± 0.07 µg/mL
same,IC50,"[6]; Homo sapiens, HT29, irinotecan HCl 0.04-20 μg/ml, alone, read-out: IC50 of irinotecan HCl, A3 antagonist none",0.96 µg/mL
CCCn1cc2c(nc(NC(=O)Nc3ccccc3)n3nc(-c4ccco4)nc23)n1 [drawing 10],% of Rh123 negative cells,[1]; 10 μM,1.0 ± 0.2%
"O=C1c2c(O)ccc(O)c2C(=O)c2c(NCCNCCO)ccc(NCCNCCO)c21 [mitoxantrone, reference compound]",IC50,[3]; [10],0.0032 µg/mL
same,IC50,[6]; [11],0.1 µg/mL
same,fold HT29 more refractory than A375,[6],approximately 30 fold
CCCn1cc2c(nc(NC(=O)Nc3ccccc3)n3nc(-c4ccco4)nc23)n1 [drawing 9],% of Rh123 negative cells,[1]; 10 μM,0.8 ± 0.2%
"COc1cccc2c1C(=O)c1c(O)c3c(c(O)c1C2=O)C[C@@](O)(C(=O)CO)C[C@@H]3O[C@H]1C[C@H](N)[C@H](O)[C@H](C)O1 [doxorubicin, reference compound]",IC50,[3]; [10],0.0064 µg/mL
same,IC50,"[6]; Homo sapiens, HT29, doxorubicin 0.0002-0.1 μg/ml, alone, read-out: IC50 of doxorubicin, A3 antagonist none",0.46 µg/mL
same,IC50,[6]; [11],0.211 µg/mL
same,fold HT29 more refractory than A375,[6],approximately 30 fold
"CN(C)c1ccc(NC(=O)Nc2nc3nn(C)cc3c3nc(-c4ccco4)nn23)cc1 [IL-11, N-1-(4-dimethylamino-phenyl)-N′-5-[8-methyl-2-(2-furyl)-pyrazolo[4,3-e]1,2,4-triazolo[1,5-c]pyrimidine]-urea]",Enhancement Factor for docetaxel,"[3]; A375, A3 antagonist 0.5 μg/ml",5.3
same,Enhancement Factor for paclitaxel,"[3]; A375, A3 antagonist 0.5 μg/ml",3.1
same,Enhancement Factor for docetaxel,"[3]; A375, A3 antagonist 5 μg/ml",6.5
same,Enhancement Factor for paclitaxel,"[3]; A375, A3 antagonist 5 μg/ml, paclitaxel 0.0001-0.05 μg/ml",9.6
same,Enhancement Factor for paclitaxel,"[3]; A375, A3 antagonist 5 μg/ml, paclitaxel 0.0002-0.1 μg/ml",11.5
same,IC50,[3]; [7],49.3 ± 40.7 µg/mL
same,inhibition at 5 µg/mL,"[3]; Homo sapiens, A-375, A375, 5 μg/ml, read-out: growth inhibition in the presence of A3 antagonist alone",30 to 45%
same,IC50,[4]; [8],36.3 ± 31.5 µg/mL
same,Enhancement Factor for docetaxel,"[4]; SKMES, A3 antagonist 0.5 μg/ml",1.9
same,Enhancement Factor for irinotecan HCL,"[4]; SKMES, A3 antagonist 0.5 μg/ml",1.9
same,Enhancement Factor for paclitaxel,"[4]; SKMES, A3 antagonist 0.5 μg/ml",4.2
same,Enhancement Factor for vinblastine,"[4]; SKMES, A3 antagonist 0.5 μg/ml",1.6
same,IC50,[5],8 ± 5.7 µg/mL
same,Enhancement Factor for docetaxel,"[5]; Panc-1, A3 antagonist 0.5 μg/ml",1.4
same,Enhancement Factor for docetaxel,"[6]; HT29, A3 antagonist 0.5 μg/ml",6.4
same,Enhancement Factor for doxorubicin,"[6]; HT29, A3 antagonist 0.5 μg/ml",1.2
same,Enhancement Factor for irinotecan HCl,"[6]; HT29, A3 antagonist 0.5 μg/ml",1.1
same,Enhancement Factor for paclitaxel,"[6]; HT29, A3 antagonist 0.5 μg/ml",2.5
same,IC50,[6]; [9],56.5 ± 8.3 µg/mL
Cc1ccc(NC(=O)Nc2nc3nn(C)cc3c3nc(-c4ccco4)nn23)cc1 [drawing 11],% of Rh123 negative cells,[1]; 10 μM,22.0 ± 1.0%
